Laboratory results taken from patent publication US20230303581A1, “ORALLY BIOAVAILABLE, BRAIN-PENETRANT COMPOUND WITH SELECTIVITY FOR THE CANNABINOID TYPE 2 RECEPTOR WITH POTENTIAL USE TOWARDS VISCERAL PAIN MANAGEMENT AND NEURODEGENERATIVE DISORDERS” (University of Mississippi, priority 2022, published 2023).

Legend:
mice [1] = assay: Conditioned place preference test; type: in vivo; settings: FIG. 4
Excerpt: Conditioned place preference testing is used to assess a compound's rewarding effects in order to gauge potential abuse liability. Mice are “conditioned” to associate distinctly lighted/colored/textured chambers with a rewarding drug (e.g., opioid) or no drug. If the mice sense a rewarding effect of the drug, they will prefer to occupy the chamber associated with that drug. FIG. 4 presents the results of a conditioned place preference test for 3 groups of mice (i.e., vehicle, oxycodone treated, and compound 4k treated).

mice [2] = assay: Acetic acid-induced writhing test; type: in vivo; settings: oxycodone 3 mg/kg, compound 4k 5 mg/kg, versus vehicle
Excerpt: Acetic acid-induced writhing is widely used for assessing analgesic effects against inflammatory pain of peripheral origin.

human CB1 receptors = human CB1 receptors (Homo sapiens (Human), UniProt P21554); assay: Cannabinoid receptor binding (displacement) assay, CB1; settings: 10 μM compound
human CB1 receptors, sequence (P21554 whole entry): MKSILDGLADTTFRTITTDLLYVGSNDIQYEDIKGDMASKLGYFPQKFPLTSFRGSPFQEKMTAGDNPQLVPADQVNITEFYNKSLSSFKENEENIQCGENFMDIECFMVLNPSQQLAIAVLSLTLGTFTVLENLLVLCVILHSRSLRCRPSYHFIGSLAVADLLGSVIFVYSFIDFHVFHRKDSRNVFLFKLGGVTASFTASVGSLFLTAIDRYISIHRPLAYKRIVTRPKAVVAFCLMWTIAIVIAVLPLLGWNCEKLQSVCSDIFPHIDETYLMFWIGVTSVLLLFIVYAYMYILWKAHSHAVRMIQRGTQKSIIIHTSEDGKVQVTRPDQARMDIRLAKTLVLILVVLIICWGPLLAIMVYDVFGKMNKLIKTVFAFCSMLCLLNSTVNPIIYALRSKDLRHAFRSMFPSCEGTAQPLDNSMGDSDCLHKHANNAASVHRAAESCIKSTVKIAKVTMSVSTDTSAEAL
Description: (§1) The affinities of the compounds for CB1 and CB2 receptors were examined using displacement assays, as previously described. Briefly, cell membranes from CHO cells expressing human CB1 or human CB2 receptors were isolated using differential centrifugation. Test compounds reconstituted in DMSO and were incubated with the isolated membrane in binding buffer (50 mM Tris-HCl, 1 mM EDTA, 3 mM MgCl2, 5 mg/mL BSA, pH 7.4) along with 2.5 nM [^3H]CP-55,940. Total binding was assessed in the presence of equal concentration of DMSO, while non-specific binding was determined in the presence of 10 μM CP-55,940, and background binding was determined in wells lacking membrane. Following incubation at 30° C. for 60 min, the binding reactions were terminated by vacuum filtration through Whatman GF/C filters. The filters were then washed twice with ice-cold buffer (50 mM Tris-HCl, 1 mg/mL BSA). Liquid scintillation cocktail was added to each well and the total tritiated counts per minute were analyzed using a TopCount scintillation counter. Background counts were subtracted from all wells and the percent displacement from total binding was calculated.
(§2) The compounds were initially screened at 10 μM concentrations. If they produced at least ±30% displacement of the radioligand, then full competition curves were constructed. Ki values were calculated using GraphPad Prism (San Diego, CA, USA) and Kd values determined using a 1 site fit. All assays were run in technical and biological replicates so that the n=5-6. PK Evaluation in CD-1 Mice
(§3) The CB1/CB2 receptor binding activities of analogs 4a-4q were assessed via radioactivity-based competitive binding assays using [^3H]CP55,940, an extensively studied radioligand that is frequently used for cannabinoid assays. […] In preliminary screening, all 17 synthetic PBD compounds (4a-4q) were subjected to in vitro CB1 and CB2 binding assays at a single concentration of 10 μM. […] Therefore, the most promising ligands (4k and 4q) were selected for assessment in full competition curves against CB1 and CB2.

human CB2 receptors = human CB2 receptors (Homo sapiens (Human), UniProt P34972); assay: Cannabinoid receptor binding (displacement) assay, CB2; settings: for Displacement of [3H]CP-55,940 from CB2: 10 μM compound
human CB2 receptors, sequence (P34972 whole entry): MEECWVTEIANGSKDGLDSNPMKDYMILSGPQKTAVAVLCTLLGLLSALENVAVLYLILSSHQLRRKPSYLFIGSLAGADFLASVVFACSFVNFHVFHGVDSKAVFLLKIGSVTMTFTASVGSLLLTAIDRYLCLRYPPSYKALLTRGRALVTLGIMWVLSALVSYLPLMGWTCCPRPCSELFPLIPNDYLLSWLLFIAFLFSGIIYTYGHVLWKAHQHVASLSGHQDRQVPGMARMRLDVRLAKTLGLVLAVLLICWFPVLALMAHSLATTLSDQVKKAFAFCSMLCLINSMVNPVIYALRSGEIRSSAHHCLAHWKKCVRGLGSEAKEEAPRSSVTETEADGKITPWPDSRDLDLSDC
Description: as §1, §2, §3

| Compound | place preference (rewarding effect, abuse liability) (mice [1]) | writhing over 30 minutes (mice [2]) | Displacement of [3H]CP-55,940 from CB1 (human CB1 receptors) [%] | Displacement of [3H]CP-55,940 from CB2 (human CB2 receptors) [%] | Ki (human CB2 receptors; CB2, full competition curves) [nM] |
| --- | --- | --- | --- | --- | --- |
| COc1ccc2c3c1O[C@H]1C(=O)CC[C@@]4(O)[C@@H](C2)N(C)CC[C@]314 [oxycodone, reference compound] | clear place preference | attenuate writhing |  |  |  |
| O=C1c2ccccc2N/C(=N/N=C/c2ccc[nH]2)[C@@H]2CCCN12 [Compound 4a] |  |  | −3.09 | −12.50 |  |
| Cn1cc(/C=N/N=C2/Nc3ccccc3C(=O)N3CCC[C@@H]23)c2ccccc21 [Compound 4o] |  |  | 5.09 | 1.01 |  |
| (S,E)-11-[2-(Benzo[b]thiophenylmethylene)hydrazono]-pyrrolo[2,1-c][1,4]Benzodiazepine [Compound 4h] |  |  | 36.88 | 61.05 |  |
| (S,E)-11-[(Benzo[d]thiazol-2-ylmethylene)hydrazono]-pyrrolo[2,1-c][1,4] Benzodiazepine [Compound 4n] |  |  | 44.14 | 43.34 |  |
| (S,E)-11-[(Thiazol-5-ylmethylene)hydrazono]-pyrrolo[2,1-c][1,4] Benzodiazepine [Compound 4c] |  |  | 0.25 | 3.06 |  |
| Cn1ccnc1/C=N/N=C1/Nc2ccccc2C(=O)N2CCC[C@@H]12 [Compound 4b] |  |  | −13.99 | −14.48 |  |
| O=C1c2ccccc2N/C(=N/N=C/c2sc3ccccc3c2Cl)[C@@H]2CCCN12 [Compound 4m] |  |  | 5.22 | 50.05 |  |
| Nc1ncc(/C=N/N=C2/Nc3ccccc3C(=O)N3CCC[C@@H]23)s1 [Compound 4f] |  |  | 1.75 | 3.72 |  |
| (S,E)-11-[(Benzo[b]thiophen-2-ylmethylene)hydrazono]-7-bromo-pyrrolo[2,1-c][1,4]Benzodiazepine [Compound 4i] |  |  | 49.82 | 36.39 |  |
| (S,E)-11-[(Benzo[b]thiophen-3-ylmethylene)hydrazono]-7-bromo-pyrrolo[2,1-c][1,4]Benzodiazepine [Compound 4j] |  |  | 66.81 | 65.24 |  |
| Cc1ncc(/C=N/N=C2/Nc3ccccc3C(=O)N3CCC[C@@H]23)s1 [Compound 4d] |  |  | −27.99 | −33.65 |  |
| (S,E)-11-[(5-Methoxy-1H-indol-3-yl)methylene)hydrazono]-pyrrolo[2,1-c][1,4]Benzodiazepine [Compound 4p] |  |  | −27.20 | −29.47 |  |
| Cc1ncsc1/C=N/N=C1/Nc2ccccc2C(=O)N2CCC[C@@H]12 [Compound 4e] |  |  | 21.88 | 19.86 |  |
| Cc1c(/C=N/N=C2/Nc3ccccc3C(=O)N3CCC[C@@H]23)sc2ccccc12 [Compound 4l] |  |  | 77.17 | 51.73 |  |
| O=C1c2ccccc2N/C(=N/N=C/C23CC4CC(CC(C4)C2)C3)[C@@H]2CCCN12 [Compound 4q] |  |  |  |  | 137 |
| O=C1c2ccccc2N/C(=N/N=C/c2sc(Cl)nc2Cl)[C@@H]2CCCN12 [Compound 4g] |  |  | 24.19 | 29.27 |  |
